Common to all, as to assay type: biochemical, Hymenopellis radicata
The subject of assay [1] is T1, ORG (O. radicata α-galactosidase).
T1 construct: native, purified from commercial dry fruiting bodies; 74 kDa by gel filtration, SDS-PAGE bands 50 and 24 kDa
Description: p-nitrophenol release, absorbance at […] nm, Michaelis-Menten plot. As to conditions: free enzyme; pNPG 0.5-4 mM, NaAc-HAc pH 4.6, 40 °C.

The target of assay [2] is T1, ORG (O. radicata α-galactosidase). Briefly: pNPG hydrolysis, absorbance at […] nm, Dixon plot. As to conditions: mixed-type inhibition; pNPG 1.5-3 mM as substrate, NaAc-HAc pH 4.6, 40 °C.
Assay [3] concerns T1, ORG (O. radicata α-galactosidase). Description: reducing sugar release (DNS method), Michaelis-Menten plot. As to conditions: free enzyme, 50 °C. The text has this: reducing sugar release (DNS method), Michaelis-Menten plot on ORG (O. radicata α-galactosidase)

The structures appear in SMILES notation.

What is called Ki is a dissociation constant, usually derived from enzyme kinetics or from competition with a known ligand.

`O=[N+]([O-])c1ccc(O[C@H]2O[C@H](CO)[C@H](O)[C@H](O)[C@H]2O)cc1` [4-nitrophenyl-α-D-galactopyranoside]: the Km in assay [1] turned out to be 0.58 mM. `OC[C@H]1OC(O)[C@H](O)[C@@H](O)[C@H]1O` (some centres unmarked) [galactose] gave an inhibitory constant (Ki) in assay [2] of 5.94 mM. With `OC[C@H]1O[C@H](OC[C@H]2OC(O)[C@H](O)[C@@H](O)[C@@H]2O)[C@H](O)[C@@H](O)[C@H]1O` (some centres unmarked) [melibiose], in assay [2], the Ki was determined as 1.86 mM. Consider `OC[C@H]1O[C@H](OC[C@H]2O[C@H](O[C@]3(CO)O[C@H](CO)[C@@H](O)[C@@H]3O)[C@H](O)[C@@H](O)[C@@H]2O)[C@H](O)[C@@H](O)[C@H]1O` [raffinose], for which the Km in assay [3] (raffinose 2-40 mM, read-out: Raffinose / Km) stood at 16.5 mM.

For the molecule `OC[C@H]1O[C@H](OC[C@H]2O[C@H](OC[C@H]3O[C@H](O[C@]4(CO)O[C@H](CO)[C@@H](O)[C@@H]4O)[C@H](O)[C@@H](O)[C@@H]3O)[C@H](O)[C@@H](O)[C@H]2O)[C@H](O)[C@@H](O)[C@H]1O` [stachyose], the Km in assay [3] (stachyose 2-40 mM, read-out: Stachyose / Km) was determined as 19 mM.

For the origin of these results see article PMC9563442, “Purification, Characterization, and Immobilization of a Novel Protease-Resistant α-Galactosidase from Oudemansiella radicata and Its Application in Degradation of Raffinose Family Oligosaccharides from Soymilk” (Foods, 2022).
